Test [1] relates to human liver cancer PLC/PRF/5 cell line. Nature of the test: MTT cell proliferation inhibition, PLC/PRF/5. The class given is cell-based. The following applies: average of three tests, read-out: IC50 tumor cell proliferation, PLC/PRF/5. The source says:
(§1) The in vitro cell proliferation inhibitory activity test of the target compound adopts the MTT method. Human leukemia K562 cell line, human myeloma U266 cell line, human lung cancer A549 cell, human prostate cancer PC-3 cell line, human lymphoma U937 cell line, human liver cancer PLC/PRF/5 cell line, and human embryonic kidney cell HEK293, human normal hepatocyte HL7702 were taken, and all adopted routine culture. Logarithmic growth phase cells were used in the experiment. The cell suspensions of the above cells were taken and counted under an inverted microscope, and the medium was added to adjust the number of cells to 1×10^5/mL. A 96-well cell culture plate was taken for cell inoculation and drug experiment. The peripheral holes are not used (filled with sterile PBS). Blank control group, negative control group, positive control group and a drug experiment group were set up. The blank control group only added 150 L/Well of cell culture solution, the negative control group was inoculated with 100 µL/well of cell suspension and 50 µL/well of cell culture medium was added, the positive control group was inoculated with 100 µL/well of cell suspension and 50 µL/well of positive control drug solution was added, and the drug experiment group was inoculated with 100 L/Well of cell suspension and 50 µL/well of the test compound solution was added, the positive control group and the drug experimental group are respectively set up with 5 different final drug concentrations: […], 3 parallel re-wells for each drug concentration. After the drug was added, the 96-well cell culture plate was incubated at 37° C., 5% CO2 and saturated humidity for 48 hours, and 10 μL of 0.5% MTT staining solution was added to each well. […] Measure the OD value of each well with a microplate reader at a wavelength of 570 nm, and the cell growth inhibition rate is calculated according to the following formula: […]

Test [2] concerns human myeloma U266 cell line. The test is described as follows: MTT cell proliferation inhibition, U266. The class given is cell-based. Particulars: average of three tests, read-out: IC50 tumor cell proliferation, U266.
Source text: as §1

Test [3] deals with Human leukemia K562 cell line. The test is described as follows: MTT cell proliferation inhibition, K562. The class given is cell-based. Particulars: average of three tests, read-out: IC50 tumor cell proliferation, K562.
Source text: as §1

The test system of test [4] is human lung cancer A549 cell. Nature of the test: MTT cell proliferation inhibition, A549. The class given is cell-based. Particulars: average of three tests, read-out: IC50 tumor cell proliferation, A549.
Source text: as §1

In test [5] the test system is human prostate cancer PC-3 cell line. Nature of the test: MTT cell proliferation inhibition, PC-3. The class given is cell-based. Particulars: average of three tests, read-out: IC50 tumor cell proliferation, PC-3.
Source text: as §1

Test [6] concerns human lymphoma U937 cell line. The test is described as follows: MTT cell proliferation inhibition, U937. The class given is cell-based. The following applies: average of three tests, read-out: IC50 tumor cell proliferation, U937.
Source text: as §1

A further test concerns B16F10 melanoma cells. The test is described as follows: Subcutaneous tumor survival test with B16F10 melanoma cells. The class given is in vivo, C57 mice. The procedure: The B16F10 melanoma cells in the logarithmic growth phase were taken, diluted with sterile PBS solution to a concentration of 1.5×10^7 cells/mL, and inoculated them subcutaneously in C57 mice with 150 μL each. 5 days later, the animals were randomly assigned to administer the drug. The day of inoculation was the first day. The body weight of the animals was recorded at the time of administration. The mice were randomly weighed and divided into the following 5 groups. […] The mice were administered according to the predetermined dosage, weighed and recorded respectively. Continuous observation until the death of the mouse was the end of observation, and the time of death of each mouse was recorded. The time of death of the mice in each group was counted.
(§2) Use Origin7.5 software's one-way analysis of variance (One-Way ANOVA) function to calculate the overall difference; use t-test to compare each group with the blank group, and the life extension rate of each drug group was calculated by the following formula: […]

Another test relates to H22 liver ascites model. Nature of the test: Survival test of H22 liver ascites model. Type of test: in vivo, Kunming mice. Particulars: equal molar amount with Ixazomib, FIG. 5-6. The procedure: Take well-grown H22 mice with liver cancer, extract ascites, add sterile PBS solution to dilute to a concentration of 2.5×10^7/mL, and inoculate the abdominal cavity of Kunming mice with 200 μL each. 5 days later, the animals were randomly grouped to administrate the drug. The day of inoculation was the first day. The body weight of the animals was recorded at the time of administration. The mice were randomly weighed and divided into the following 6 groups, with 10 mice in each group. […] The mice were administered according to the predetermined dosage, weighed and recorded respectively.
as §2

The target of another test is Aminopeptidase N (APN) (Homo sapiens (Human), UniProt P15144). The test is described as follows: Inhibition of aminopeptidase N in vitro (L-leucyl p-nitroaniline substrate, absorbance 405 nm). The class given is biochemical. The following applies: average of three tests. The source says:
Aminopeptidase N interacts with its commercial substrate L-leucyl p-nitroaniline (purchased from Sigma) to produce p-nitroaniline that is absorbed at 405 nm, and the concentration of p-nitroaniline is positively correlated to the enzyme activity. Measure the absorbance at 405 nm, and calculate the inhibition rate based on the absorbance of the inhibitor group and the control group, and calculate the IC50 value.

Test [7] concerns human embryonic kidney cell HEK293. The test is described as follows: MTT proliferation inhibition on normal human cells, HEK293. Type of test: cell-based. Particulars: 48 hours, average of three tests. An excerpt: (§3) The in vitro cell proliferation inhibitory activity test of the target compound adopts the MTT method. Human leukemia K562 cell line, human myeloma U266 cell line, human lung cancer A549 cell, human prostate cancer PC-3 cell line, human lymphoma U937 cell line, human liver cancer PLC/PRF/5 cell line, and human embryonic kidney cell HEK293, human normal hepatocyte HL7702 were taken, and all adopted routine culture. Logarithmic growth phase cells were used in the experiment. The cell suspensions of the above cells were taken and counted under an inverted microscope, and the medium was added to adjust the number of cells to 1×10^5/mL. A 96-well cell culture plate was taken for cell inoculation and drug experiment. The peripheral holes are not used (filled with sterile PBS). Blank control group, negative control group, positive control group and a drug experiment group were set up. […] Measure the OD value of each well with a microplate reader at a wavelength of 570 nm, and the cell growth inhibition rate is calculated according to the following formula: […]

Test [8] has as its system human normal hepatocyte HL7702. The test is described as follows: MTT proliferation inhibition on normal human cells, HL7702. The class given is cell-based. The following applies: L02, 48 hours, average of three tests.
Source text: as §3

Another test has as its target 20S Proteasome (Homo sapiens (Human), UniProt P28074). Nature of the test: 20S proteasome detection kit, in vitro proteasome activity test (7-AMC fluorescence). Particulars: average of three tests. Type of test: biochemical. An excerpt: The proteasome interacts with its substrate to produce the fluorescent substance 7-amino-4-methylcoumarin (7-AMC), and the concentration of 7-AMC is positively correlated with the activity of the proteasome. Measure the fluorescence intensity at 380/460 nm to calculate the inhibition rate based on the absorbance of the inhibitor group and the control group, and calculate the IC50 value.

The subject of another test is macrophages. The test is described as follows: Function test of clearance rate of charcoal particles (macrophage phagocytosis) in mice. The following applies: for carbon clearance index (K) / phagocytosis index(α): mice, administered 2 weeks, mean ± standard deviation. Type of test: in vivo, Kunming mice. On the procedure:
The mononuclear macrophage system is a very important defense system, which has a powerful ability to swallow and clear foreign particles. When a certain concentration of charcoal particles enters the body through the tail vein of the mice, they are carried to the liver, spleen, etc. by the flow of blood, and the macrophages of these organs can remove these charcoal particles. Within a certain concentration range, the rate of macrophages' elimination of charcoal particles is exponentially related to their dose, that is, the rate of phagocytosis is directly proportional to the concentration of charcoal particles in the blood. Therefore, taking the logarithm of the concentration of charcoal particles in the blood of mice as the ordinate and the time as the abscissa, the slope K represents the phagocytic rate of macrophages, but this is an uncorrected phagocytic index. In fact, its phagocytic activity is also related to the weight of the liver and spleen of mice. Different weights result in different K values. Therefore, it is generally expressed by the corrected phagocytic index α, which reflects the phagocytic activity per unit tissue weight. The calculation formulas of K and a are as follows: K=(log A1−log A2)/(t2−t1) α=(k^1/3×body weight)/(liver weight+spleen weight)
Materials: Kunming mice (female, 4-5 weeks old), Indian ink, normal saline, Na2CO3 solution (0.1% g/v), UV ultraviolet visible photometer.
Kunming mice were randomly divided into groups and administered for 2 weeks. One hour after the last administration, each mouse was injected intravenously with 0.1 mL/10 g of Indian ink 5 times diluted with normal saline, and started timing immediately after injection, 20 μL of blood samples were accurately collected from the orbital venous plexus and added into 2 mL of 0.1% Na2CO3 solution at 2 min (t1) and 10 min (t2) time points, respectively. After mixing evenly, use 0.1% Na2CO3 solution as the control group, each administration group was the experimental group, the absorbance at two time points of t1 and t2 were measured by ultraviolet spectrophotometer at 600 nm, and counted as A1 and A2. The clearance index is calculated by the calculation formula of the above K value. In addition, after the completion of blood collection, the mice were sacrificed by neck removal, and the liver and spleen were taken out and weighed. Calculate the phagocytic index α.

Another test concerns liver cancer H22. Nature of the test: Inhibition of liver cancer H22 lung metastasis in mice. The class given is in vivo, Kunming mice. Particulars: intragastric administration, 2.69-4.48 mg/kg, two cycles; FIG. 1-4. The procedure: Take well-grown H22 mice with liver cancer, extract ascites, add sterile PBS solution to dilute to a concentration of 2.5×10^7/mL, and inoculate Kunming mice through tail vein with 200 μL each. The Kunming mice with overweight or underweight were excluded, randomly grouped, and the drug was administrated according to the dosing schedule.
The Kunming mice inoculated with H22 tumors were weighed and randomly divided into the following 6 groups, with 7 mice in each group. […] The mice were sacrificed 13 days after the inoculation. The calculation formula for the inhibition rate of lung metastasis of liver cancer was as follows: […]

Setting [9] is: Homo sapiens, PLC-PRF-5, 48 hours.

Data on four molecules can be found in patent US12054502B2, “Multifunctional immunity-targeted micromolecule anti-cancer medicine Bestazomib (Bestazomib) and preparation method and application thereof” (SHANDONG HUBBLE KISEN BIOLOGICAL TECHNOLOGY CO., LTD., priority 2018, dated 2024).

Counter-ions that a name gives are not always drawn. Like-named read-outs stand apart in the source and are kept apart here.

Chain of Aminopeptidase N (APN) (P15144 whole entry, species assumed): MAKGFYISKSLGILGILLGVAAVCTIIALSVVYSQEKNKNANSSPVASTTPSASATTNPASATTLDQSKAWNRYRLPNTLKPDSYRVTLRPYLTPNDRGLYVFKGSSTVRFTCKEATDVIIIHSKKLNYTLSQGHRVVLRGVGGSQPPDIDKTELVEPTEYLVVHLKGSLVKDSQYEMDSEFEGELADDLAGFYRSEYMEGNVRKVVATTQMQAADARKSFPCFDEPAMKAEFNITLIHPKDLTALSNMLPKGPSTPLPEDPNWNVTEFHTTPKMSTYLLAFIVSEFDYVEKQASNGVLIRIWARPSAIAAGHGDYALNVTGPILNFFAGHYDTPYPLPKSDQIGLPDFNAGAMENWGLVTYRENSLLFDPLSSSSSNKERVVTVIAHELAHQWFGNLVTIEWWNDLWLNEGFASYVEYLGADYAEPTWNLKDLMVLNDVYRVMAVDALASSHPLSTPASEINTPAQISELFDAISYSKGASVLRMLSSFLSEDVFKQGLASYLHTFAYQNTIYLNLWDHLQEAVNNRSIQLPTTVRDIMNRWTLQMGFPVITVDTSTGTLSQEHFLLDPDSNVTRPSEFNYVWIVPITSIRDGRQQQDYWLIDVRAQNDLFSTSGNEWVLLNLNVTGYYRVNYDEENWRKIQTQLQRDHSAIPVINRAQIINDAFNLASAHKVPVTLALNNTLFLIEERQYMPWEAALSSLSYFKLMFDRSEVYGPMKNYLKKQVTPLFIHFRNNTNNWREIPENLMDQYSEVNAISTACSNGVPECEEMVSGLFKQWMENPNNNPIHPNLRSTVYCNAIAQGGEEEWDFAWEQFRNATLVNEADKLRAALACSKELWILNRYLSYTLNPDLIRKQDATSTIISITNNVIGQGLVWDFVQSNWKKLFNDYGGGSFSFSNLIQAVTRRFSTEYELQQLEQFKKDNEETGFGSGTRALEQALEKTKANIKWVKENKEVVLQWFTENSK

Turning to `CC(C)C[C@H](NC(=O)[C@@H](O)[C@H](N)Cc1ccccc1)C(=O)O` [Bestatin, reference compound], the IC50 in [1] (48 hours), in [2] (48 hours), in test [3] (48 hours), in test [4] (48 hours), in test [5] (48 hours) and in test [6] (48 hours) was above 200 µM throughout.

As to `CC(C)C[C@H](NC(=O)[C@@H](O)[C@H](N)Cc1ccccc1)B1OC(=O)C(CC(=O)O)(CC(=O)O)O1` [Bestazomib Citrate, 2,2′-(2-((R)-1-((2S,3R)-3-amino-2-hydroxy-4-phenylbutanoylamino)-3-methylbutyl)-5-oxo-1,3,2-dioxaborolan-4,4-diyl) diacetic acid], in the test with B16F10 melanoma cells (4, 6, 9 mg/kg/4d, FIG. 7), the “survival time of B16F10 melanoma mice” value is listed as “significantly prolong the survival time”. The “survival time of mice compared with Ixazomib” value in the test on B16F10 melanoma cells (medium-dose 6 mg/kg/4d and high-dose 9 mg/kg/4d vs Ixazomib 4 mg/kg/4d) is “better survival time of mice in the medium-dose and high-dose than the positive drug Ixazomib”. Besides, the IC50 in test [1] (setting [9]) is 54.7 ± 4.12 µM; in test [2] (Homo sapiens, U-266, 48 hours), 21.7 ± 1.87 µM; in [3] (Homo sapiens, K562, 48 hours) it was 12.3 ± 1.46 µM; on Aminopeptidase N (APN) it was 2.14 µM; in test [7] it was 446 ± 19.4 µM; in test [8] it was 371 ± 70.9 µM. In addition, the IC50 against 20S Proteasome was determined as 8.56 µM; in test [4] (Homo sapiens, A549, 48 hours) it was 63.6 ± 5.71 µM; in [5] (Homo sapiens, PC-3, 48 hours) it was 45.6 ± 3.16 µM; in test [6] (Homo sapiens, U-937, 48 hours) it was 6.42 ± 0.64 µM. The “survival time of mice” value with H22 liver ascites model was “better than the prolonged time of the positive drug Ixazomib”. Besides, the “phagocytic ability of macrophages in mice” value in the test on macrophages (compared with positive control Ixazomib) is on record as “significantly stronger than that of the positive control Ixazomib”. Besides, the “carbon clearance index (K)” value in the test with macrophages (high-dose 4.48 mg/kg/4 d po.) stood at 0.063 ± 0.0002; in the test on macrophages (low-dose 2.69 mg/kg/4 d po.), 0.066 ± 0.0077; in the test with macrophages (medium-dose 3.59 mg/kg/4 d po.), 0.076 ± 0.0016. In addition, the “phagocytosis index(α)” value in the test with macrophages (high-dose 4.48 mg/kg/4 d po.) is 21.628 ± 0.026; in the test on macrophages (low-dose 2.69 mg/kg/4 d po.) it was 24.842 ± 0.969; in the test on macrophages (medium-dose 3.59 mg/kg/4 d po.), 21.620 ± 0.154. The “anti-tumor activity (H22 lung metastasis)” value in the test with liver cancer H22 was “strong anti-tumor activity”.

For `CC(C)C[C@H](NC(=O)[C@@H](O)[C@H](N)Cc1ccccc1)B(O)O` [Bestazomib, (R)-1-((2S,3R)-3-amino-2-hydroxy-4-phenylbutyramide)-3-methylbu tylboronic acid], the IC50 in test [1] (setting [9]) stood at 79.6 ± 6.32 µM; in test [2] (Homo sapiens, U-266, 48 hours) it was 36.6 ± 2.07 µM; in test [3] (Homo sapiens, K562, 48 hours), 37.1 ± 2.28 µM; against Aminopeptidase N (APN), 3.87 µM; against 20S Proteasome, 10.2 µM; in test [4] (Homo sapiens, A549, 48 hours) it was 98.4 ± 7.51 µM. In addition, the IC50 in [5] (Homo sapiens, PC-3, 48 hours) was found to be 65.7 ± 5.83 µM; in test [6] (Homo sapiens, U-937, 48 hours) it was 15.5 ± 1.41 µM.

In the case of `CC(C)C[C@H](NC(=O)CNC(=O)c1cc(Cl)ccc1Cl)B(O)O` [Ixazomib, reference compound], the IC50 came to 18.2 µM on Aminopeptidase N (APN), 17.1 ± 2.27 µM in test [7] and 4.04 ± 0.63 µM in [8].
